Data on two compounds can be found in ChEMBL document CHEMBL5046296 (J Med Chem, 2022).

Series [1] is described as follows: Displacement of 3H-LP-927443 from AAK1 in mouse brain membrane homogenate assessed as inhibition constant at 1 uM incubated for 1 hr by liquid scintillation counter analysis. The format is cell membranes. For orientation: In a radioligand displacement assay an active substance lowers the binding of a labelled ligand.
The nature of series [2]: Metabolic stability in rat liver microsomes assessed as CYP450-mediated metabolism by measuring parent compound remaining at 0.5 uM incubated for 10 mins in presence of NADPH by LC-MS/MS analysis. The format is ADME. The settings on record: read-out: Stability. For orientation: Liver microsomes are a subcellular fraction often used to study metabolism.
Series [3] is described as follows: Protein binding in rat plasma assessed as unbound fraction at 10 uM measured after 5 hrs by LC-MS/MS analysis. Type of series: ADME, cell-free.
Series [4] can be described thus: Inhibition of PCKA (unknown origin). Further details: species or system Homo sapiens.
Series [5] concerns the target T1, AP2-associated protein kinase 1 (Homo sapiens, UniProt Q2M2I8). In words: Inhibition of GST-Xa tagged human AAK1 (30 to 330 residues) expresssed in bacteria using (5-FAM)-Aha-KEEQSQITSQVTGQIGWR-NH2 peptide as substrate incubated for 3 hrs in presence of ATP by electrophoretic analysis.
Series [6] deals with Cyclin-G-associated kinase (Homo sapiens, UniProt O14976). In words: Inhibition of GAK (unknown origin).
A short description of series [7]: Permeability of compound at pH 7.4 measured after 4 hrs by PAMPA assay. Type of series: ADME. Particulars: read-out: permeability. On the technique in general: PAMPA measures passive passage across an artificial lipid membrane.
In series [8] the target is Serine/threonine-protein kinase N2 (Homo sapiens, UniProt Q16513). Put plainly: Inhibition of PRK2 (unknown origin).
The next series has as its target Cytochrome P450 (Homo sapiens, UniProt P04798+P05177+P05181+P08684+P10632+P10635+P11509+P11712+P13584+P20813+P20815+P20853+P24462+P24903+P33260+P33261+P51589+P78329+P98187+Q02928+Q08477+Q16678+Q16696+Q5TCH4+Q6VVX0+Q7Z449+Q8TAV3+Q96SQ9+Q9HB55). In words: Metabolic stability in human liver microsomes assessed as CYP450-mediated metabolism by measuring parent compound remaining at 0.5 uM incubated for 10 mins in presence of NADPH by LC-MS/MS analysis. The format is ADME. The settings on record: read-out: Stability.

The nature of series [9]: Permeability of compound at pH 5.5 measured after 4 hrs by PAMPA assay. The settings on record: read-out: permeability. The format is ADME.
A short description of series [10]: Permeability across basolateral to apical side in human Caco-2 cells at 3 uM measured after 2 hrs by LC-MS/MS analysis. The format is ADME, cell-based. The settings on record: read-out: permeability.
Series [11] in a line: Protein binding in mouse plasma assessed as unbound fraction at 10 uM measured after 5 hrs by LC-MS/MS analysis. The format is ADME, cell-free.
Series [12] concerns the target BMP-2-inducible protein kinase (Homo sapiens, UniProt Q9NSY1). Put plainly: Inhibition of BIKE (unknown origin).
A further series relates to Aorta. In words: Cardiotoxicity in rat aortic ring assessed as relaxation of phenylephrine induced aortic ring contraction at 10 uM incubated for 1 hr. Further details: scale not given: the % may be the effect or the level left. Type of series: toxicity, tissue-based.
For series [13], the target named is T1, AP2-associated protein kinase 1. In words: Inhibition of […] in HEK293F cells assessed as reduction in phospho mu2 formation incubated for 3 hrs by Western blot analysis. The format is cell-based.
The target of a further series is Cytochrome P450 3A4 (Homo sapiens, UniProt P08684). Put plainly: Inhibition of CYP3A4 (unknown origin) using BFC as substrate. The format is ADME.
The target of series [14] is Rho-associated protein kinase 2 (Homo sapiens, UniProt O75116). In words: Inhibition of ROCK2 (unknown origin).
Rho-associated protein kinase 2, sequence (O75116 whole entry): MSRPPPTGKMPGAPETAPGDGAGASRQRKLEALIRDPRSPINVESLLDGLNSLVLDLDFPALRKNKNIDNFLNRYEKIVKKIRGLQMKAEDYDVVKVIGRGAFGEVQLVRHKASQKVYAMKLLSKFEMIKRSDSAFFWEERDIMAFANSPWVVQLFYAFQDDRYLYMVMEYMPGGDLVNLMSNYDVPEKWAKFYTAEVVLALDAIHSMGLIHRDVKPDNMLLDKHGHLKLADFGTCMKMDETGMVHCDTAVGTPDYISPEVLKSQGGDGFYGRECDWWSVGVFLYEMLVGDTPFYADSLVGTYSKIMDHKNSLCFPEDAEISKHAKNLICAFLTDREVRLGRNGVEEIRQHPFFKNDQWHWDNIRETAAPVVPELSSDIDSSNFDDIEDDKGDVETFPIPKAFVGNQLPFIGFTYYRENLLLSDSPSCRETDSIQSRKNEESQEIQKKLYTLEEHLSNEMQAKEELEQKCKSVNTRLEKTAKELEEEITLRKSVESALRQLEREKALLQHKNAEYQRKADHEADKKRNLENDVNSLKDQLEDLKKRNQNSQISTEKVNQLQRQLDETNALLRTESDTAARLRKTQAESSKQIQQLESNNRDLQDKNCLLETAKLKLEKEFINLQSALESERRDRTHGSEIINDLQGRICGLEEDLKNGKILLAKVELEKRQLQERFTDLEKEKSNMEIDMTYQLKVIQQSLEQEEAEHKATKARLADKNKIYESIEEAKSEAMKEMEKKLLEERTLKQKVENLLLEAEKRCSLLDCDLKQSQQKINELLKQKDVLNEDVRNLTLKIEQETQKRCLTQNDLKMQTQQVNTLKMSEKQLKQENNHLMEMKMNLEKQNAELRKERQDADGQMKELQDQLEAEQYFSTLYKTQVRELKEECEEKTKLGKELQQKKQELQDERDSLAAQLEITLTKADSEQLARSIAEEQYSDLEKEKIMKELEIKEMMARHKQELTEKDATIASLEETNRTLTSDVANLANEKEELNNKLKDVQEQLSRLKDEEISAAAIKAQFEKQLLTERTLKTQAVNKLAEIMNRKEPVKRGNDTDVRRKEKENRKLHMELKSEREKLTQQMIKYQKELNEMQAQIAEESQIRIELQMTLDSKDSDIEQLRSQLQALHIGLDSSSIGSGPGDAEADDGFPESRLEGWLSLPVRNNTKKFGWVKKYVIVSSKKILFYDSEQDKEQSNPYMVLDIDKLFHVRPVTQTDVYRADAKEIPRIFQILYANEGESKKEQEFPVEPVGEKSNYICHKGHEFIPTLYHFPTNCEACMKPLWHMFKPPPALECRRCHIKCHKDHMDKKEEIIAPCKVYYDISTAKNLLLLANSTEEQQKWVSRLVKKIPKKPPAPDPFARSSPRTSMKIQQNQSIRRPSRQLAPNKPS
Series [15] in a line: Permeability across apical to basolateral side in human Caco-2 cells at 3 uM measured after 2 hrs by LC-MS/MS analysis. The format is ADME, cell-based. Particulars: read-out: permeability.
The target of series [16] is cGMP-dependent protein kinase 2 (Homo sapiens, UniProt Q13237). Put plainly: Inhibition of PKG2 (unknown origin).
cGMP-dependent protein kinase 2, sequence (Q13237 whole entry): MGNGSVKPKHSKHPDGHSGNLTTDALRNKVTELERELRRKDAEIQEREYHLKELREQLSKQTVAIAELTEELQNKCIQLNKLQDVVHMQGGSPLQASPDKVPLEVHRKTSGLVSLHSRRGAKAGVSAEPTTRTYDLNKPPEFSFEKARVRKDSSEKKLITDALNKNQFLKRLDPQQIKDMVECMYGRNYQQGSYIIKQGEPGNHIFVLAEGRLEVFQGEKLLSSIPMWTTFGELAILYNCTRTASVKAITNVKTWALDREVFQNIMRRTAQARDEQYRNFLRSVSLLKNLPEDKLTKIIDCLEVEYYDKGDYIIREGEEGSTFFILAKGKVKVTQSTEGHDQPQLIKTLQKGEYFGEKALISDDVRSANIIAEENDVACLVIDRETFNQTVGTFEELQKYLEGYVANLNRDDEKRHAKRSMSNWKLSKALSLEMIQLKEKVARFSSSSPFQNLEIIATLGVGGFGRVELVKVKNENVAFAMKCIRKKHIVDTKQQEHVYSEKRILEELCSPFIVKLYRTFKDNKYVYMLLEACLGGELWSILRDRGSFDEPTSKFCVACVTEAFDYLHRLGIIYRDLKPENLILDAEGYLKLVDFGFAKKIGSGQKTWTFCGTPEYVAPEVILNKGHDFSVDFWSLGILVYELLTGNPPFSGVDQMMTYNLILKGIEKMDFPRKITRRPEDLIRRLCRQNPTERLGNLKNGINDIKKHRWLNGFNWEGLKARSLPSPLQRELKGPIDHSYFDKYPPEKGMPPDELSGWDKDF
The target in series [17] is Citron Rho-interacting kinase (Homo sapiens, UniProt O14578). In words: Inhibition of CRIK (unknown origin).
Citron Rho-interacting kinase, sequence (O14578 whole entry): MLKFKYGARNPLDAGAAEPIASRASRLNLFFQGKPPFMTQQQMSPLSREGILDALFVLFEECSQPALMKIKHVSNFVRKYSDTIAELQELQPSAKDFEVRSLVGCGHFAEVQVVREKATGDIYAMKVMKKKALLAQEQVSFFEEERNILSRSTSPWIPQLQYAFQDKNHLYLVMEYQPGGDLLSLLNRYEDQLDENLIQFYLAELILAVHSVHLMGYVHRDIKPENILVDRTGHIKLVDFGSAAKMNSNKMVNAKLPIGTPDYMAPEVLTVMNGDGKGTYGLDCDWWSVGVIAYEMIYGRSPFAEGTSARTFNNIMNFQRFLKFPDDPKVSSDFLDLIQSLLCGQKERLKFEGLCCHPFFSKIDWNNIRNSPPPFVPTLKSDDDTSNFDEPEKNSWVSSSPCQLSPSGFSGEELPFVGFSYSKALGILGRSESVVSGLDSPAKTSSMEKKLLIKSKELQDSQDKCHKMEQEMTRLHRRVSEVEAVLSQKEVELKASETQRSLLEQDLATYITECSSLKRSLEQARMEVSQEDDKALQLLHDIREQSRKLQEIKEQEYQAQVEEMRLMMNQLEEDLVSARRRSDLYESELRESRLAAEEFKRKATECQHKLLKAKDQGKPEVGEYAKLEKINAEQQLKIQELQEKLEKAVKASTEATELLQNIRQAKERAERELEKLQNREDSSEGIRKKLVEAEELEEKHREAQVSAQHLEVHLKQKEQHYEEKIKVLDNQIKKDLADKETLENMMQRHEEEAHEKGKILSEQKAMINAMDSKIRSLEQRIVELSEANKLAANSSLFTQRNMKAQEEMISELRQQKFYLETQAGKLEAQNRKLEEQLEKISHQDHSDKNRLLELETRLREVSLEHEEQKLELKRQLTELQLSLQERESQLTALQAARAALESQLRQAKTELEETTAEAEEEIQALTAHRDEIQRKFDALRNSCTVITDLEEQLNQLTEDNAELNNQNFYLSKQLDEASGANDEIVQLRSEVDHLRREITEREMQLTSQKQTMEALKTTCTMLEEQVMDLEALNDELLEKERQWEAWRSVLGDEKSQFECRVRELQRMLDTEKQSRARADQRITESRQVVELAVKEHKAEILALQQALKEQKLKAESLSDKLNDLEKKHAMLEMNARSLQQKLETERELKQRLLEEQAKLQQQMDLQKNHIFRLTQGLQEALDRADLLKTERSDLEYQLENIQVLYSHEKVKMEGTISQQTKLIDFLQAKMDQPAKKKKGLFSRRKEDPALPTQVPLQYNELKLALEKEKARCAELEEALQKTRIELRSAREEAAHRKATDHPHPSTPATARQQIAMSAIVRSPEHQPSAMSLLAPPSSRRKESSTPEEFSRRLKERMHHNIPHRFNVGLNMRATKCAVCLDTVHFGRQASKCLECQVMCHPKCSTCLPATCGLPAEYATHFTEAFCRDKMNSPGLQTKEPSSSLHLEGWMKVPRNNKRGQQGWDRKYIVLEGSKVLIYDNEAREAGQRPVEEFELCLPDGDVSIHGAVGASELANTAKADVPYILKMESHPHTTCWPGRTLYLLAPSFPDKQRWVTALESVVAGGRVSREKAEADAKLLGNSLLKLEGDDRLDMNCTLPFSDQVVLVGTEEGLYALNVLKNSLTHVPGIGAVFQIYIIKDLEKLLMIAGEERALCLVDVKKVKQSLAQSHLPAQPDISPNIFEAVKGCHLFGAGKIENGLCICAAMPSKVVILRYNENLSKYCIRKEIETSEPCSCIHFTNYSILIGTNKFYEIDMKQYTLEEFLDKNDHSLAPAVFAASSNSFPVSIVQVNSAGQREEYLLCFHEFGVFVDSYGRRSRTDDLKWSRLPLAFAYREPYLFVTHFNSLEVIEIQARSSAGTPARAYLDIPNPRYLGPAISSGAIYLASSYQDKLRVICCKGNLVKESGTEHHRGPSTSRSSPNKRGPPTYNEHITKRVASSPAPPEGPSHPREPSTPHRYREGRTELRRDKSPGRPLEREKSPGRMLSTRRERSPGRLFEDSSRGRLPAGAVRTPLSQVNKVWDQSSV
The target in series [18] is MAP kinase-interacting serine/threonine-protein kinase 1 (Homo sapiens, UniProt Q9BUB5). Put plainly: Inhibition of MNK1 (unknown origin).
Series [19] in a line: Protein binding in human plasma assessed as unbound fraction at 10 uM measured after 5 hrs by LC-MS/MS analysis. Type of series: ADME, cell-free.
Series [20] is described as follows: Toxicity in naive Sprague-Dawley rat assessed as motor impairment at 100 mg/kg, po measured after 5 hrs by rotarod test. The format is organism-based. The settings on record: in vivo.

The Ki is the dissociation constant of the complex between target and ligand, obtained from inhibition or displacement. One may read the fraction unbound as free concentration divided by total concentration. Broadly, the IC50 is the concentration at which inhibition is half-maximal.

T1 sequence (Q2M2I8 whole entry, the tested form may be a part): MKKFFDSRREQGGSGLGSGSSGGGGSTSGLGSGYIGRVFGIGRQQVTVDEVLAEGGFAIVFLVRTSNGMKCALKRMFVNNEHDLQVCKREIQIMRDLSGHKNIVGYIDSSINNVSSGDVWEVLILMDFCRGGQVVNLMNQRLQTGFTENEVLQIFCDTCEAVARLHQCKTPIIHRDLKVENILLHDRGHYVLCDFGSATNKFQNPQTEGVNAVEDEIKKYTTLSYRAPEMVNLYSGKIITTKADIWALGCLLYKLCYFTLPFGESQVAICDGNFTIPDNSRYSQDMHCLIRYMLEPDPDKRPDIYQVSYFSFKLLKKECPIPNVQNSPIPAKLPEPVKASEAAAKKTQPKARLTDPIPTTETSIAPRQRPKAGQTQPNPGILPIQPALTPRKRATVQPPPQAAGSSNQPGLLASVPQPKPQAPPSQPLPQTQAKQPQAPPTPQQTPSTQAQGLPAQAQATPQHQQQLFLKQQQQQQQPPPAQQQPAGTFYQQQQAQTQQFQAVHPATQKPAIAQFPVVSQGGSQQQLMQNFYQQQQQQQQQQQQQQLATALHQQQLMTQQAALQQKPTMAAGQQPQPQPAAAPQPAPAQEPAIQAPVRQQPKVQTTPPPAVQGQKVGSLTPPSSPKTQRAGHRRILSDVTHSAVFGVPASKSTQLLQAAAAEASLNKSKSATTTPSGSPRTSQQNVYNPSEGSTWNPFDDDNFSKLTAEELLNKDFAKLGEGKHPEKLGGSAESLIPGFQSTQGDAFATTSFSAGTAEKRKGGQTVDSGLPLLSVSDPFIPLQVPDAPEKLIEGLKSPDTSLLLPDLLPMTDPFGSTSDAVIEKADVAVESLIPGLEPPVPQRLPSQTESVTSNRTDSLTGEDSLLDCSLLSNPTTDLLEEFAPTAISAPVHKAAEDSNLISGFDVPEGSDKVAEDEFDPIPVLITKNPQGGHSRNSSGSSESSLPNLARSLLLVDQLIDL

On to `CC(C)C[C@](C)(N)COc1ccc(-c2ccnc(C(F)F)c2)cc1C(F)F`, for which the inhibitory constant (Ki) in series [1] worked out at 0.04 nM. The remaining at 10 min, 0.5 µM in series [2] is 83%; on Cytochrome P450 it was 96%. Moreover, the free fraction (fraction unbound) at 5 h, 10 µM in [3] was 0.045; in [11], 0.018; in series [19], 0.046. Also, the concentration for half-maximal inhibition (IC50) was found to be 580 nM in series [4]; 0.4 nM in series [5]; 73 nM in series [6]; 440 nM in series [8]; 280 nM in [12]; 0.9 nM in [13]. Besides, the half-maximal inhibitory concentration (IC50) against Cytochrome P450 3A4 is 16000 nM; in series [14] it was 420 nM; in series [16] it was 420 nM; in series [17], 56 nM; in series [18], 180 nM. Further, the Papp at 4 h in [7] worked out at 42.7 ×10⁻⁶ cm/s; in series [9] it was 99.9 ×10⁻⁶ cm/s. Besides, the Papp B→A at 2 h, 3 µM in series [10] came to 6.2 ×10⁻⁶ cm/s. For the same compound, the Activity in the series with Aorta was determined as 84%. Moreover, the Papp A→B at 2 h, 3 µM in series [15] was determined as 10.8 ×10⁻⁶ cm/s.
Consider `NCC1(CC(=O)O)CCCCC1` [GABAPENTIN], for which the Activity entry in series [20] is reported as “Non-Toxic”.
